Experimental data from a melting point compilation (Tetko et al.; mined from patent text by program, amines drawn as free bases though some values may be those of a salt).

Compared with `CCOC(=O)c1c2ccc(Cl)cc2c(-c2ccccc2)n1CCC(C)(C)CCBr`, `CCOC(=O)c1c(-c2ccc(O)cc2)nc2ccccn12` is higher in melting point: 87 to 88 °C for the first, 220 °C for the second.

Compared with `COC(=O)Nc1ccc(N)c([N+](=O)[O-])c1`, `COC(=O)c1cc(O)c(O)c([N+](=O)[O-])c1` is lower in melting point: 171 to 172 °C for the first, 144 to 145 °C for the second.

`Fc1cccc(C(c2ccnc3ccccc23)n2ccnc2)c1` (stereo unspecified) and `c1ccc(-c2cc3c(ccc4ccccc43)o2)cc1` cannot be ordered by melting point: 140 °C for the first, 140 to 144 °C for the second.

Going from `CS(=O)(=O)c1ccc(-c2cnn(Cc3ccccc3)c(=O)c2-c2ccc3c(c2)COC3=O)cc1` to `O=C1c2cccc(Sc3ccccc3)c2C(=O)c2cccc(Nc3cccc([N+](=O)[O-])c3)c21`, the melting point falls from greater than 250 °C to 246 °C.

Compared with `O=C(Nc1cnc2cnc(-c3ccc(O)cc3)nc2c1)c1ccncc1`, `NC(=O)c1ccnc(-c2ccc(Oc3ccc(F)cc3)cc2)n1` is lower in melting point: 230 to 232 °C for the first, 195 to 197 °C for the second.

First: CCOCCCNC(=O)C(C)(C(C)C)C(C)C
Second: CC(=O)Oc1c(C(C)(C)C)cc(CCCO)cc1C(C)(C)C
The melting point of the first is lower: 30 °C for the first, 93 to 95 °C for the second.

Compared with `N#Cc1nn(-c2c(Cl)cc(C(F)(F)F)cc2Cl)cc1C(=O)C(F)(F)C(F)(F)F`, `N#CCC(C#N)NNc1c(Cl)cc(C(F)(F)F)cc1Cl` (stereo unspecified) is lower in melting point: 120 °C for the first, 101 to 102 °C for the second.

First: O=C(c1n[nH]c2c(=O)[nH]c3cc(Cl)ccc3c(=O)c12)N(O)Cc1ccccc1
Second: Cc1oc(CCOc2ccc(CC3SC(=O)NC3=O)cn2)nc1Cc1ccccc1 (stereo unspecified)
The melting point of the first is higher: 282 to 285 °C for the first, 110 to 111 °C for the second.

First: Cc1ccc(S(=O)(=O)N2CCc3c(sc(N)c3C(=O)c3ccccc3)C2)cc1
Second: COc1ccc(-c2cccs2)cc1/C=C/C(=O)c1ccc(C(=O)O)cc1
The melting point of the first is lower: 165 to 167 °C for the first, 195 to 196 °C for the second.

First: NC(=O)CNC(=O)c1cccc(-c2cccc3nc(Oc4cccc(C(F)(F)F)c4)sc23)c1
Second: O=C(O)CCOc1cccc(CCNC(=O)C2Cc3ccccc3N2S(=O)(=O)c2ccc(-c3cccc(C(F)(F)F)c3)cc2)c1 (stereo unspecified)
The melting point of the first is higher: 203 to 204 °C for the first, 78 °C for the second.

First: CCOc1cscc1C(=O)Nc1cc(Cl)ccc1SSc1ccc(Cl)cc1NC(=O)c1cscc1OCC
Second: O=C(O)c1ccc2c(c1)Sc1ccc(Cl)cc1C=C2
The melting point of the first is lower: 179 to 181 °C for the first, 302 to 304 °C for the second.

Compared with `Cc1c2c(c(-c3ccc4c(c3)OCO4)c3c4c(ccc13)OCO4)C(=O)NC2=O`, `S=C(NCc1ccc(Cl)cc1Cl)N1CCc2c([nH]c3ccccc23)C1c1ccc2c(c1)OCO2` (stereo unspecified) is lower in melting point: 310 to 313 °C for the first, 124 to 127 °C for the second.

First: Cn1c(C(F)(F)F)cc(=O)n(-c2ccc(Cl)cc2O)c1=O
Second: Cn1c(=O)oc(=O)c2cc(F)ccc21
The melting point of the first is higher: 198 to 202 °C for the first, 133 °C for the second.

Compared with `CN=C(O)c1cc(Cl)c(Sc2ccccc2C(=O)O)cc1C(=O)O`, `CC(C)=CCOc1ccc(C(=O)C=Cc2c(Cl)cccc2Cl)c(O)c1` is lower in melting point: 258 to 266 °C for the first, 101 to 102 °C for the second.

First: COc1cc(C)c(N2C(=O)CS/C2=N/N=C\c2ccc(-c3ncn(-c4ccc(OC(F)(F)F)cc4)n3)cc2)c(C)c1
Second: CC(=O)c1c(-c2ccc(C(F)(F)F)cc2)[nH]c(-c2ccncc2)c1C
The melting point of the first is higher: 188 to 190 °C for the first, 178 to 180 °C for the second.

First: CNC(=S)NS(=O)(=O)c1cc(CCNC(=O)/C=C/c2cccs2)ccc1-c1ccco1
Second: CCN1C(=O)C(C)(C)C(=O)N(C)c2cc(CN(CCn3cc(C)c4occc4c3=O)Cc3scnc3C)ccc21
The melting point of the first is higher: 175 to 176 °C for the first, 134 to 136 °C for the second.

Compared with `CN(C)c1c(-c2ccccc2)sc2ccccc12`, `C1=C(c2ccccc2)CCN(Cc2n[nH]c3c2CCc2ccccc2-3)C1` is higher in melting point: 84 to 86 °C for the first, 175 to 176 °C for the second.

First: Cc1noc(C)c1C(=O)Nc1ccc(-n2nc(C3CC3)cc2C2CC2)cc1
Second: O=C(Nc1ccc(-n2nc(C(F)(F)F)cc2C(F)(F)F)cc1)c1c(F)cccc1Cl
The melting point of the first is lower: 115 to 119 °C for the first, 165 to 167 °C for the second.

First: O=c1[nH]c2ncc(-c3ccc(-c4nnc[nH]4)cc3)nc2n1CCN1CCOCC1
Second: N#Cc1cccc2c1NC(=O)C2c1ncnc2c1cnn2C1CCCCC1 (stereo unspecified)
The melting point of the first is lower: 295 to 297 °C for the first, greater than 300 °C for the second.

Compared with `CCOC1=NS(=O)(=O)C(C(=O)OC(C)(C)C)=C1N`, `CCOC(=O)Cn1cc(C(=O)Nc2ccc(OCC(C)(C)C)c(C#N)c2)c(C)n1` is higher in melting point: 128 to 130 °C for the first, 240 °C for the second.

First: Cc1cc(C)n(CC(C)C)c(=O)c1C#N
Second: Cc1cc(=O)oc2nn(Cc3cccc(Cl)c3)c(C)c12
The melting point of the first is lower: 126 to 128 °C for the first, 148 to 149 °C for the second.

First: CC(C)(O)P(=O)(O)CCCN
Second: CC(C)(CCCCCCC(C)(C)CCC(=O)O)CCC(=O)O
The melting point of the first is higher: 243 to 244 °C for the first, 88 to 89 °C for the second.

Compared with `ClC(Cl)(Cl)c1nc(-c2ccccc2-c2ccc(CBr)cc2)no1`, `O=c1c(Cc2ccncc2)c(-c2ccc(Cl)cc2)[nH]c2c(Br)cc(Br)cc12` is higher in melting point: 77 to 79 °C for the first, 198 to 200 °C for the second.

First: CC1CN(c2cc3c(cc2F)c(=O)c(C(=O)O)cn3C2CC2)CCN1CCC#N (stereo unspecified)
Second: CN1CCN(c2ccc([N+](=O)[O-])c(C(=O)O)c2)CC1
The melting point of the first is lower: 203 to 206 °C for the first, 212 °C for the second.

First: COc1cccc(CN2CCC3(CCc4c3n(C)c3ccccc43)CC2)c1
Second: CNC(=O)C1=CN=C(N2CCN(C)CC2)CC1c1ccccc1C (racemic)
The melting point of the first is lower: 100 to 101 °C for the first, 137 to 138 °C for the second.

First: CCc1nc(C)ccc1OC1SCC(O)C(O)C1O (stereo unspecified)
Second: CC(C)(C)NCC(O)COc1cccc2c1CNC(=O)N2 (stereo unspecified)
The melting point of the first is lower: 172 to 174 °C for the first, 204 to 205 °C for the second.

First: CCOC(=O)CCCCC(=O)OC[C@@H]1CC(c2ccc(-c3ccc(N4C[C@H](Cn5ccnn5)OC4=O)cc3F)cn2)=NO1
Second: Cc1ccc(S(=O)(=O)OC[C@H]2COc3cc(C)c4c(c3O2)CC(=O)N4)cc1
The melting point of the first is lower: 88 °C for the first, 233 to 235 °C for the second.

Compared with `CCS(=O)(=O)c1ccc(C(=O)C2C(=O)CCCC2=O)c(Cl)c1C1=NOC2OCCC12` (stereo unspecified), `CCOC(=O)C1Cc2cc3c(C)noc3c(Cl)c2O1` (stereo unspecified) is higher in melting point: 99 °C for the first, 123 to 124 °C for the second.

First: Cc1cc(N)ccc1C(O)c1ccccn1 (stereo unspecified)
Second: CCOC(=O)C(=Cc1ccccn1)C(=O)C(C)C
The melting point of the first is higher: 102 to 104 °C for the first, 53 to 55 °C for the second.

Compared with `CC(=O)Oc1c(C)cc(NC(=O)Nc2c(-c3ccccc3C)c3cc(Cl)c(C)cc3oc2=O)cc1C`, `CN1Cc2c(C(N)=S)ncn2-c2cccc(Cl)c2C1=O` is higher in melting point: 240 to 242 °C for the first, 300 to 302 °C for the second.

First: CCCCCCCCCCCCCCCO/N=C(\CCCCCCCCCCCCCCC)CC(=O)O
Second: C[Si](C)(C)CCCOc1ccc(C(=O)O)c(O)c1
The melting point of the first is lower: 65 to 67 °C for the first, 187 °C for the second.

First: CC(C)N=C(NC#N)Nc1cc(Cl)cc(Cl)c1
Second: CC(C)c1ccc(N(Cc2ccc(N(C)C)cc2)C(=O)C2CCCc3ccc(O)cc32)cc1 (stereo unspecified)
The melting point of the first is lower: 156 to 158 °C for the first, 214 to 217 °C for the second.

Compared with `CCN(CC)CCN1NC(N)=c2cc3c(nc21)=CC(O)(OC)C=C3` (stereo unspecified), `CN(C)c1ccc(C2=CCC(C)(C)c3cc(C(O)C#Cc4ccc(C(=O)O)cc4)ccc32)cc1` (stereo unspecified) is lower in melting point: 232 to 235 °C for the first, 91 °C for the second.

First: O=C(CCl)c1ccc(CCO)cc1
Second: O=C(ON1C(=O)CCC1=O)c1ccccn1
The melting point of the first is lower: 41 to 45 °C for the first, 174 to 175 °C for the second.

Compared with `N#CC1(c2ccccc2)C2CC3CC(C2)CC1C3` (stereo unspecified), `C=CCSC(c1ccccc1)(c1ccccc1)c1ccccc1` is lower in melting point: 120 to 122 °C for the first, 99 to 101 °C for the second.

Work on `O=C1NC2(CCCC2)CCCC1Cl` (stereo unspecified) yielded a melting point of 109 to 111 °C.
